Test results taken from US20090036437A1, “PHARMACEUTICAL COMPOSITION COMPRISING PHENOXAZINIUM COMPOUND AS AN ACTIVE INGREDIENT” (priority 2005, published 2009).
Where two headings read alike, the source gives them in different places.

What was measured:
[1] = tested on: Trypanosoma cruzi (Tulahuen C2C4 strain); experiment: in vitro growth-inhibiting screening assay, protozoa of American trypanosomiasis; format: cell-based; conditions: for EC50: in infected rat L6 cells, 96 h, CPRG/Nonidet, read-out: 50% growth-inhibiting concentration (nM) Trypanosoma cruzi
Method: The test was done using a trypomastigote and an amastigote of the protozoa of Trypanosoma cruzi (Tulahuen C2C4 strain) present in the infected rat L6 cells. The L6 cells were cultured in RPMI-1640 medium supplemented with 1% of […] (200 mM) and 10% of fetal calf serum under CO2 concentration of 5%, at 37° C.
A test sample was prepared by dissolving the test compounds according to the present invention and a positive control drug (benznidazole) in DMSO to a predetermined concentration. Culture medium containing the protozoa of 5×10^3 was added into each well of 96-well culture plate and cultured for 48 hours. After the medium was exchanged, the test sample comprising the predetermined amount of the test compound, and DMSO without the test compound were added into each well in duplicate.
After incubation of the culture plate for 96 hours in an incubator, a growth-inhibiting activity was assayed as follows. CPRG/Nonidet (50 μL) was added to each well followed by a further 2˜6-hour culture. The culture plate was then attached to an absorption micro titer plate reader, the absorbance at 540 nm was detected to calculate an infection ratio of the protozoa with respect to a group treated with the test sample and a control group. A growth-inhibiting ratio was then calculated from the resulting infection ratio in accordance with the following equation to determine 50% growth-inhibiting concentration (EC50).
Growth-inhibiting ratio (%)=[1−(b−a)/(c−a)]×100 • a: Initial infection ratio; • b: Infection ratio of the test sample group; and • c: Infection ratio of the control group.
A selective toxicity coefficient, which is used as an index for the selective toxicity for the protozoa of American trypanosomiasis, was calculated by the following equation, and the pharmaceutical effect was determined.
A selective toxicity coefficient=(EC50 value of the test sample for rat L6 cell)/(EC50 value of the test sample for the protozoa of American trypanosomiasis).

[2] = tested on: Plasmodium Falciparum K1 strain; experiment: in vitro growth-inhibiting screening assay, chloroquine-resistant falciparum malaria; format: cell-based; conditions: for EC50: chloroquine-resistant strain, 72 h culture, 3H-hypoxanthine, read-out: 50% growth-inhibiting concentration (nM) P. falciparum K1
Method: Plasmodium Falciparum K1 strain was used as a chloroquine-resistant protozoa of falciparum malaria. RMI-1640 sterilized by filtration was supplemented with human serum of a final concentration of 5% to be used as a culture medium. The malaria protozoa were cultured under O2 concentration of 3%, CO2 concentration of 4%, N2 concentration of 93% at 37° C.
A test sample was prepared by dissolving the test compounds according to the present invention and a positive control drug (chloroquine) in DMSO to a predetermined concentration. The erythrocytes infected with the cultured malaria protozoa were collected by centrifugation and so diluted with non-infected erythrocytes to have an initial infection ratio of 0.15%. The hematocrit value was then 2.5%. Culture mixture of the above malaria-infection culture medium (200 μL) was placed into each well of a 96-well culture plate, and the test sample comprising the predetermined amount of the test compound, and DMSO without the test compound were added to the wells in duplicate.
After culture for 48 hours at 37° C., hypoxanthine labeled with radioactive tritium (^3H) of 0.5 μCi was added to each well. After the culture in the same conditions for further 24 hours, the sample was taken on a glass fiber filter and washed with distilled water. Intensity of radiation was measured by means of plate liquid scintillation counter (Wallac Co.), and an infection ratio of the protozoa of malaria was calculated with respect to a group treated with the test sample and the control. A growth-inhibiting ratio was then calculated from the resulting infection ratio in accordance with the following equation to determine 50% growth-inhibiting concentration (EC50).
Growth-inhibiting ratio (%)=[1−(b−a)/(c−a)]×100 • a: Initial infection ratio; • b: Infection ratio of the test sample group; and • c: Infection ratio of the control group. In vitro Growth-Inhibiting Assay of Rat L6 Cells
Anti-malaria effect of the samples was assessed by their EC50 values for the chloroquine-resistant protozoa of falciparum malaria and the rat L6 cell. A chemotherapy coefficient, which is used as an index for the selective toxicity for the chloroquine-resistant protozoa of falciparum malaria was calculated by the following equation, and the pharmaceutical effect was determined.
Chemotherapy coefficient=(EC50 value of the test sample for rat L6 cell)/(EC50 value of the test sample for the chloroquine-resistant protozoa of falciparum malaria)

[3] = tested on: Plasmodium berghei NK65 strain; experiment: in vivo 4-day suppressive test, intraperitoneal administration, mouse infected with malaria; conditions: 4 days
Method: This test was carried out in accordance with 4-day suppressive test that is a general in vivo test for the activity of an anti-malaria compound. Rodent malaria protozoa (Plasmodium berghei NK65 strain) were used in this test. Infected blood was prepared by infection with intraperitoneal administration into ICR male mouse (5 weeks age; SPF) and passage culture (subculture) thereafter. Blood was drawn from the vein of a tail of the moue infected with malaria, and its infection ratio was determined. After it was confirmed that the infection ratio had been increased up to an appropriated level (10˜20%), the blood infected with malaria was drawn from the heart of the mouse. The infection ratio and number (cells/mL) of erythrocytes were determined. An uninfected mouse (ICR male, 5 weeks age) was then infected with an injection of the infected erythrocytes so diluted with PBS as to comprise the protozoa of […] per dose (0.2 mL) into the vein of its tail.
A test sample was prepared by dissolving the test compounds according to the present invention into physiologic saline (Otsuka Pharmaceuticals Industries) to a predetermined concentration. In the case where the compound was insoluble in water, it was dissolved into DMSO or Tween 20 to prepare the test sample. A control group (no drug-administration group) was treated only with physiologic saline. […]
One group consisted of five mice. The intraperitoneal administration of the test sample started after two hours from the infection with malaria and continued for successive 4 days with a 24-hour interval. After 24 hours from the last administration, blood was drawn from the tail of the infected mouse to prepare a thin-layer smear, and the number of the erythrocytes infected with the malaria protozoa under a microscope with respect to the control group and the test sample groups. Parasitemia, i.e., the infection ratio with the malaria protozoa, was obtained by calculating an average value of the medium three mice except the two mice showing a maximum or minimum inhibition level. A cure rate (suppression) was then calculated from the resulting parasitemia in accordance with the following equation.
Cure rate: suppression (%)=(b−a)/b×100 • a: Infection ratio of the test sample group; and • b: Infection ratio of the control group.

[4] = Table 5, 2.5 mg/kg/day intraperitoneal
[5] = Table 5, 5.0 mg/kg/day intraperitoneal
[6] = Table 5, 10 mg/kg/day intraperitoneal
[7] = Table 5, 20 mg/kg/day intraperitoneal

SMILES | EC50 [1] | EC50 [2] | Parasitaemia suppression (%) ([3]; 5 mg/kg/day intraperitoneal) | Selective toxicity ([1]; EC50 rat L6 cell / EC50 protozoa of American trypanosomiasis) | EC50 ([1]; Trypanosoma cruzi, TULAHUEN) | Selective toxicity ([2]; EC50 rat L6 cell / EC50 P. falciparum K1) | EC50 ([2]; Plasmodium falciparum, K1) | Parasitaemia suppression (%) [3, 4] | Parasitaemia suppression (%) [3, 5] | Parasitaemia suppression (%) [3, 6] | Parasitaemia suppression (%) [3, 7]
CN(C)c1ccc2nc3ccc(=[N+](C)C)cc-3oc2c1.CN(C)c1ccc2nc3ccc(=[N+](C)C)cc-3oc2c1.[Cl-].[Cl-].[Cl][Zn][Cl] [Compound A-3] | 457 nM | 15.6 nM | 17.1% |  |  |  |  |  |  |  | 
CC[N+](CC)=c1ccc2nc3ccc(N(C)C)cc3oc-2c1 [Compound A-4] |  |  | 85.3% | 22 | 211 nM | 1200 | 2.1 nM | 58.7% | 85.3% | 99.9% | >99.99%
CCN(CC)c1ccc2nc3ccc(=[N+](CC)CC)cc-3oc2c1.[Cl-] [A-1 (60% purity)] | 149 nM | 4.6 nM | 46.3% |  |  |  |  | 30.5% | 46.3% | 82.4% | 95.8%
CCCC[N+](CCCC)=c1ccc2nc3ccc(N(CC)CC)cc3oc-2c1.[Cl-] [Compound A-6] | 24 nM | 2.4 nM | 83.1% |  |  |  |  |  |  |  | 
CCN(CC)c1ccc2nc3ccc(=[N+](CC)CC)cc-3oc2c1.[Cl-] [A-1 (>95% purity)] | 15 nM | 2.1 nM | 79.2% |  |  |  |  |  |  |  | 
CCCC[N+](CCCC)=c1ccc2nc3ccc(N(C)C)cc3oc-2c1.[O-][Cl+3]([O-])([O-])[O-] [Compound A-7] | 22 nM | 1.5 nM | 90.3% |  |  |  |  |  |  |  | 
